# Patent US11111217B2, “2-arylbenzimidazoles as Ppargc1a activators for treating neurodegenerative diseases” (The Board of Trustees of the Leland Stanford Junior …, priority 2018, dated 2021)
# System: TNF-α production by BV2 cells or PBMC
# Assay: Cellular assay to measure TNF-α inhibition (LPS-stimulated, ELISA)
# Type: cell-based, murine (BV2) or human (PBMC)
# Conditions: BV2 cells or PBMC (not specified), LPS 100 ng/ml over 24 hours, relative to DMSO vehicle; compound concentration not stated
# Description: Oxidative metabolism exerts an anti-inflammatory effect on myeloid cell phenotype (O'Neill L A, Front Immunol. 2014) and Ppargc1a can promote this energy metabolic pathway (Spiegelman BM, Novartis Found Symp. 2007). Thus, pharmacological activation of Ppargc1a would be expected to inhibit the inflammatory response of myeloid cells. This phenomenon can be measured in cultures by a TNF-α inhibition assay.
# Cellular Assay Protocol to Measure TNF-α Inhibition
# The murine myeloid cell line BV2 or human peripheral blood mononuclear cells (PBMC) are cultured in RPMI 1640 media (Cat #11875119, Gibco) supplemented with 10% fetal bovine serum and 1% L-glutamine 1% penicillin. These cells are then stimulated with 100 ng/ml of lipopolysaccharide (LPS, O111:B34, Cat # L2630, Sigma) over 24 hours. LPS stimulation results in the secretion of the inflammatory cytokine TNF-α by BV2 cells or PBMC, which can be quantified by ELISA in culture supernatant samples per manufacturer's protocol (Cat #558273 for BV2 and Cat #558299 for PBMC, BD Biosciences). To determine whether exampl compounds 1-78 inhibit TNF-α production by BV2 cells or PBMC, the cells were cultured in the presence of the compounds at different concentrations, and fold reduction in TNF-α production relative to TNF-α production by the same cells cultured in the presence of dimethylsulfoxide (as vehicle control) was determined.
row,Structure (SMILES),TNF α Inhibition
1,"CCCOc1ccc(-c2nc3ccccc3[nH]2)cc1 [Example 68, 2-(4-Propoxyphenyl)-1H-benzo[d]imidazole]",C (C = <50% inh.)
2,"Cc1cccc2[nH]c(-c3ccc(C(C)(C)C)cc3)nc12 [Example 45, 2-(4-tert-Butylphenyl)-4-methyl-1H-benzo[d]imidazole]",A (A = >80% inh.)
3,"CC(C)(C)c1ccc(-c2nc3ncccc3[nH]2)cc1 [Example 35, 2-(4-tert-Butylphenyl)-1H-imidazo[4,5-b]pyridine]",C (C = <50% inh.)
4,"Cc1cccc(-c2nc3ccccc3[nH]2)c1 [Example 9, 2-(3-Methylphenyl)-1H-benzo[d]imidazole]",C (C = <50% inh.)
5,"Clc1ccc(-c2nc3ccccc3[nH]2)cc1 [Example 8, 2-(4-Chlorophenyl)-1H-benzo[d]imidazole]",C (C = <50% inh.)
6,"Cc1ccccc1-c1nc2ccccc2[nH]1 [Example 12, 2-(2-Methylphenyl)-1H-benzo[d]imidazole]",C (C = <50% inh.)
7,"Clc1cccc(-c2nc3ccccc3[nH]2)c1 [Example 27, 2-(3-Chlorophenyl)-1H-benzo[d]imidazole]",C (C = <50% inh.)
8,"COc1ccc(-c2nc3c(F)cc(F)cc3[nH]2)cc1 [Example 78, 4,6-Difluoro-2-(4-methoxyphenyl)-1H-benzo[d]imidazole]",C (C = <50% inh.)
9,"N#Cc1ccc(-c2nc3ccccc3[nH]2)cc1 [Example 18, 2-(4-Cyanophenyl)-1H-benzo[d]imidazole]",C (C = <50% inh.)
10,"CC(C)(C)c1ccc(-c2nc3cc(O)ccc3[nH]2)cc1 [Example 32, 2-(4-tert-Butylphenyl)-1H-benzo[d]imidazol-5-ol]",A (A = >80% inh.)
11,"COc1ccccc1-c1nc2ccccc2[nH]1 [Example 25, 2-(2-Methoxy-phenyl)-1H-benzo[d]imidazole]",C (C = <50% inh.)
12,"CC(C)(C)c1ccc(-c2nc3cnccc3[nH]2)cn1 [Example 13, 2-(6-tert-Butyl-3-pyridyl)-1H-imidazo[4,5-c]-pyridine]",B (B = 50-80% inh.)
13,"CC(C)(C)c1ccc(-c2nc3cc(F)c(F)cc3[nH]2)cc1 [Example 52, 2-(4-tert-Butylphenyl)-5,6-difluoro-1H-benzo[d]imidazole]",C (C = <50% inh.)
14,"Nc1ccccc1-c1nc2ccccc2[nH]1 [Example 48, 2-(2-Aminophenyl)-1H-benzo[d]imidazole]",C (C = <50% inh.)
15,"CC(C)(C)c1ccc(-c2nc3ccccc3[nH]2)cn1 [Example 10, 2-(6-tert-Butyl-3-pyridyl)-1H-benzo[d]imidazole]",A (A = >80% inh.)
16,"CCc1ccc(-c2nc3ccccc3[nH]2)cc1 [Example 28, 2-(4-Ethylphenyl)-1H-benzo[d]imidazole]",C (C = <50% inh.)
17,"CC(C)(C)c1ccc(-c2nc3ccccc3s2)cc1 [Example 3, 2-(4-tert-Butylphenyl)-1,3-benzothiazole]",C (C = <50% inh.)
18,"c1ccc(Oc2ccc(-c3nc4ccccc4[nH]3)cc2)cc1 [Example 72, 2-(4-Phenoxyphenyl)-1H-benzo[d]imidazole]",C (C = <50% inh.)
19,"Nc1cccc(-c2nc3ccccc3[nH]2)c1 [Example 47, 2-(3-Aminophenyl)-1H-benzo[d]imidazole]",C (C = <50% inh.)
20,"c1ccc(COc2ccc(-c3nc4ccccc4[nH]3)cc2)cc1 [Example 73, 2-(4-Benzyloxyphenyl)-1H-benzo[d]imidazole]",C (C = <50% inh.)

row,Structure (SMILES),TNF α Inhibition
1,"c1ccc(-c2ccc(-c3nc4ccccc4[nH]3)cc2)cc1 [Example 65, 2-(4-Biphenyl)-1H-benzo[d]imidazole]",C (C = <50% inh.)
2,"CC(C)(C)c1ccc(-c2nc3cc(C#N)ccc3[nH]2)cc1 [Example 31, 2-(4-tert-Butylphenyl)-1H-benzo[d]imidazole-5-carbonitrile]",A (A = >80% inh.)
3,"FC(F)(F)c1ccccc1-c1nc2ccccc2[nH]1 [Example 22, 2-(2-Trifluoro-methylphenyl)-1H-benzo[d]imidazole]",C (C = <50% inh.)
4,"FC(F)Oc1ccc(-c2nc3ccccc3[nH]2)cc1 [Example 70, 2-(4-(Difluoromethoxy)phenyl)-1H-benzo[d]imidazole]",B (B = 50-80% inh.)
5,"CC(C)(C)c1ccc(-c2nc3c(N)cccc3[nH]2)cc1 [Example 62, 2-(4-tert-Butylphenyl)-1H-benzo[d]imidazol-4-amine]",A (A = >80% inh.)
6,"CC(C)(C)c1ccc(-c2nc3c(Cl)cccc3[nH]2)cc1 [Example 46, 2-(4-tert-Butylphenyl)-4-chloro-1H-benzo[d]imidazole]",A (A = >80% inh.)
7,"CC(C)(C)c1ccc(-c2nc3c(Br)cccc3[nH]2)cc1 [Example 54, 2-(4-tert-Butylphenyl)-4-bromo-1H-benzo[d]imidazole]",A (A = >80% inh.)
8,"Oc1cccc(-c2nc3ccccc3[nH]2)c1 [Example 40, 2-(3-Hydroxyphenyl)-1H-benzo[d]imidazole]",C (C = <50% inh.)
9,"Brc1ccc(-c2nc3ccccc3[nH]2)cc1 [Example 26, 2-(4-Bromophenyl)-1H-benzo[d]imidazole]",C (C = <50% inh.)
10,"Oc1ccccc1-c1nc2ccccc2[nH]1 [Example 16, 2-(2-Hydroxy-phenyl)-1H-benzo[d]imidazole]",C (C = <50% inh.)
11,"COc1ccc2[nH]c(-c3ccc(C(C)(C)C)cc3)nc2c1 [Example 29, 2-(4-tert-Butylphenyl)-5-methoxy-1H-benzo[d]imidazole]",A (A = >80% inh.)
12,"Brc1ccccc1-c1nc2ccccc2[nH]1 [Example 23, 2-(2-Bromophenyl)-1H-benzo[d]imidazole]",B (B = 50-80% inh.)
13,"CCOc1ccc(-c2nc3ccccc3[nH]2)cc1 [Example 67, 2-(4-Ethoxyphenyl)-1H-benzo[d]imidazole]",C (C = <50% inh.)
14,"CC(C)(C)c1cc(-c2nc3ccccc3[nH]2)cc(C(C)(C)C)c1 [Example 53, 2-(3,5-di-tert-Butylphenyl)-1H-benzo[d]imidazole]",C (C = <50% inh.)
15,"Fc1ccccc1-c1nc2ccccc2[nH]1 [Example 17, 2-(2-Fluorophenyl)-1H-benzo[d]imidazole]",C (C = <50% inh.)
16,"Fc1cccc(-c2nc3ccccc3[nH]2)c1 [Example 36, 2-(3-Fluorophenyl)-1H-benzo[d]imidazole]",C (C = <50% inh.)
17,"CC(C)(C)c1ccc(-c2nc3cc(Br)ccc3[nH]2)cc1 [Example 43, 2-(4-tert-Butylphenyl)-5-bromo-1H-benzo[d]imidazole]",A (A = >80% inh.)
18,"CC(C)(C)Oc1ccc(-c2nc3ccccc3[nH]2)cc1 [Example 71, 2-(4-tert-Butoxyphenyl)-1H-benzo[d]imidazole]",B (B = 50-80% inh.)
19,"CC(C)(C)c1ccc(-c2nc3cc(Cl)ccc3[nH]2)cc1 [Example 37, 2-(4-tert-Butylphenyl)-5-chloro-1H-benzo[d]imidazole]",A (A = >80% inh.)
20,"c1ccc(-c2nc3ccccc3[nH]2)cc1 [Example 14, 2-(Phenyl)-1H-benzo[d]imidazole]",C (C = <50% inh.)
